Legend:
Assay in all cases: relative viability (nuclei count vs DMSO), 5 days (fraction); higher = more cells survive
Bortezomib + Linsitinib = compound: CC(C)C[C@H](NC(=O)[C@H](Cc1ccccc1)NC(=O)c1cnccn1)B(O)O [Bortezomib] + C[C@]1(O)C[C@@H](c2nc(-c3ccc4ccc(-c5ccccc5)nc4c3)c3c(N)nccn32)C1 [Linsitinib] (partner 1 µM)
Summary of the method: (§1)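 Cells from lung cancer lines were seeded into 1536-well plates and, one day later, dosed by pin tool. Treatments were either a single drug or a fixed dose of an anchor drug with five library-drug doses (not always all listed) in √10 steps. After 5 days, nuclei were stained in a one-step fixation (final 0.05% Triton X-100, 1% formaldehyde, 1 ug/ml Hoechst) and counted on 4× images, and relative viability is the treated-to-vehicle nuclei ratio, as the median of duplicate plates.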

Obatoclax + Bortezomib = compound: COC1=CC(c2cc3ccccc3[nH]2)=N/C1=C\c1[nH]c(C)cc1C [Obatoclax] + CC(C)C[C@H](NC(=O)[C@H](Cc1ccccc1)NC(=O)c1cnccn1)B(O)O [Bortezomib] (partner 0.002 µM)
Summary of the method: as §1

Obatoclax + Navitoclax = compound: COC1=CC(c2cc3ccccc3[nH]2)=N/C1=C\c1[nH]c(C)cc1C [Obatoclax] + CC1(C)CCC(c2ccc(Cl)cc2)=C(CN2CCN(c3ccc(C(=O)NS(=O)(=O)c4ccc(N[C@H](CCN5CCOCC5)CSc5ccccc5)c(S(=O)(=O)C(F)(F)F)c4)cc3)CC2)C1 [Navitoclax] (partner 0.5 µM)
Summary of the method: as §1

Obatoclax + Decitabine = compound: COC1=CC(c2cc3ccccc3[nH]2)=N/C1=C\c1[nH]c(C)cc1C [Obatoclax] + Nc1ncn([C@H]2C[C@H](O)[C@@H](CO)O2)c(=O)n1 [Decitabine] (partner 2 µM)
Summary of the method: as §1

Cell Line | relative viability (Bortezomib + Linsitinib; first compound 0.0002 µM) | relative viability (Bortezomib + Linsitinib; first compound 0.000632 µM) | relative viability (Bortezomib + Linsitinib; first compound 0.002 µM) | relative viability (Bortezomib + Linsitinib; first compound 0.006325 µM) | relative viability (Bortezomib + Linsitinib; first compound 0.02 µM) | relative viability (Obatoclax + Bortezomib; first compound 0.01 µM) | relative viability (Obatoclax + Bortezomib; first compound 0.03162 µM) | relative viability (Obatoclax + Bortezomib; first compound 0.3162 µM) | relative viability (Obatoclax + Bortezomib; first compound 1 µM) | relative viability (Obatoclax + Navitoclax; first compound 0.01 µM) | relative viability (Obatoclax + Navitoclax; first compound 0.03162 µM) | relative viability (Obatoclax + Navitoclax; first compound 0.1 µM) | relative viability (Obatoclax + Navitoclax; first compound 0.3162 µM) | relative viability (Obatoclax + Navitoclax; first compound 1 µM) | relative viability (Obatoclax + Decitabine; first compound 0.01 µM) | relative viability (Obatoclax + Decitabine; first compound 0.03162 µM) | relative viability (Obatoclax + Decitabine; first compound 0.1 µM) | relative viability (Obatoclax + Decitabine; first compound 0.3162 µM) | relative viability (Obatoclax + Decitabine; first compound 1 µM) | relative viability (Obatoclax + Bortezomib; first compound 0.1 µM)
LOU-NH91 | 0.995 | 0.86 | 0.383 | 0.285 | 0.294 | 0.531 | 0.435 | 0.367 | 0.441 | 0.761 | 0.739 | 0.556 | 0.549 | 0.364 | 0.743 | 0.833 | 0.728 | 0.758 | 0.606 | –
SK-MES-1 | 1.08 | 1.06 | 1.1 | 0.54 | 0.189 | – | – | – | – | 1.28 | 1.16 | 1.22 | 1.03 | 0.64 | 0.366 | 0.374 | 0.468 | 0.233 | 0.202 | –
LCLC-103H | 1.06 | 1.07 | 1.25 | 1.09 | 0.272 | 1.01 | 1 | 1.07 | 1.05 | – | – | – | – | – | 0.7 | 0.728 | 0.784 | 0.763 | 0.738 | 0.992
NCI-H1915 | 1.13 | 1.13 | 1.01 | 1.07 | 0.0602 | 1.05 | 0.748 | 1.01 | 0.975 | 0.766 | 0.638 | 0.711 | 0.76 | 0.785 | 0.268 | 0.267 | 0.24 | 0.256 | 0.272 | 0.93
IA-LM | 0.907 | 0.682 | 0.577 | 0.161 | 0.0151 | 0.838 | 0.723 | 0.0591 | 0.0714 | 0.852 | 0.855 | 0.666 | 0.065 | 0.0608 | – | – | – | – | – | 0.727
NCI-H1734 | 0.898 | 0.674 | 0.814 | 0.192 | 0.129 | 0.928 | 0.818 | 0.914 | 0.836 | 0.745 | 0.841 | – | 0.723 | 0.668 | 0.504 | 0.467 | 0.511 | 0.491 | 0.506 | –
NCI-H2170 | – | – | – | – | – | – | – | – | – | 0.618 | 0.554 | 0.606 | 0.609 | 0.577 | 0.47 | 0.393 | 0.47 | 0.453 | 0.441 | –
Calu-6 | 0.938 | 0.775 | 0.961 | 0.214 | 0.0654 | 1.03 | 1.02 | 0.955 | 0.191 | 0.874 | 0.977 | 0.852 | 0.506 | 0.0891 | – | – | – | – | – | 0.979
NCI-H1650 | – | – | – | – | – | 0.208 | 0.198 | 0.19 | 0.197 | 1.03 | 1.08 | 1.18 | 0.986 | 0.239 | 0.457 | 0.352 | 0.47 | 0.268 | 0.267 | 0.196
NCI-H661 | 0.62 | 0.552 | 0.46 | 0.311 | 0.181 | 0.805 | 0.704 | 0.843 | 0.786 | – | – | – | – | – | 0.539 | 0.532 | 0.594 | 0.558 | 0.489 | 0.865
NCI-H1395 | 1.02 | 0.97 | 0.463 | 0.382 | 0.347 | – | – | – | – | 1.2 | 1.13 | 0.949 | 0.865 | 0.69 | 0.716 | 0.735 | 0.754 | 0.695 | 0.513 | –
NCI-H2228 | 0.671 | 0.717 | 0.506 | 0.157 | 0.133 | 0.96 | 1.01 | 0.626 | 0.367 | 1.16 | 0.984 | 0.677 | 0.919 | 0.944 | – | – | – | – | – | 1.25
NCI-H1648 | – | – | – | – | – | – | – | – | – | – | – | – | – | – | 0.594 | 0.421 | 0.829 | 0.447 | 0.39 | –
NCI-H358 | 0.755 | 0.622 | 0.625 | 0.162 | 0.141 | – | – | – | – | – | – | – | – | – | 0.213 | 0.187 | 0.232 | 0.157 | 0.137 | –
NCI-H1299 | 1 | 0.917 | 1.1 | 0.452 | 0.118 | 0.969 | 1.05 | 1 | 0.93 | 1.04 | 1.07 | 1.04 | 1.07 | 0.997 | – | – | – | – | – | 0.982
NCI-H522 | – | – | – | – | – | – | – | – | – | – | – | – | – | – | 0.708 | 0.642 | 0.607 | 0.747 | 0.608 | –
NCI-H2342 | – | – | – | – | – | – | – | – | – | – | – | – | – | – | 0.724 | 0.782 | 0.758 | 0.732 | 0.812 | –
NCI-H1793 | 0.771 | 0.723 | 0.808 | 0.778 | 0.149 | – | – | – | – | 0.337 | 0.291 | 0.51 | 0.422 | 0.47 | 0.578 | 0.47 | 0.519 | 0.421 | 0.415 | –
SW 900 | – | – | – | – | – | – | – | – | – | – | – | – | – | – | 0.438 | 0.426 | 0.364 | 0.402 | 0.382 | –
NCI-H1703 | 1.07 | 0.438 | 0.252 | 0.0867 | 0.0799 | 0.456 | 0.38 | 0.227 | 0.22 | 1.27 | 1.34 | 0.955 | 0.385 | 0.292 | – | – | – | – | – | 0.304
ABC-1 | 0.806 | 0.688 | 0.308 | 0.257 | 0.234 | 0.323 | 0.134 | 0.323 | 0.212 | – | – | – | – | – | 1.38 | 1.31 | 0.999 | 1.17 | 1.07 | 0.23
ChaGo-K-1 | – | – | – | – | – | 1.11 | 0.949 | 0.968 | 1.23 | 0.956 | 0.669 | – | 0.955 | 1.32 | 0.497 | 0.476 | 0.506 | 0.509 | 0.516 | –
LK-2 | 0.409 | 0.551 | 0.353 | 0.17 | 0.142 | – | – | – | – | 0.885 | 0.822 | 0.957 | 0.864 | 1.02 | 0.365 | 0.242 | 0.335 | 0.268 | 0.395 | –
